# Experimental data reported in patent US10240133B2, “ERK-derived peptides and uses thereof” (Yeda Research and Development Co. Ltd., priority 2013, dated 2019).
# Entries after “also recorded” stand apart in the source; their conditions may differ.
# Columns and labels:
# [1] = test system: ERK; assay: Immunohistochemistry of ERK localization in xenograft tumors; type: in vivo, mice; conditions: MDA-MB-231 and LOXIMVI xenografts, anti ERK Ab
# From the text: FIGS. 10A-10B illustrate that the EPE peptide causes cytoplasmatic localization of ERK in xenografts. FIG. 10A: Photographs illustrating that EPE and Scr peptide as well as DMSO-treated MDA-MB-231 and LOXIMVI xenografts were immunostained with αgERK Ab. FIG. 10B presents bar-graphs representing number of cells with cytoplasmatic/nuclear ERK staining calculated in 10 random microscopic fields.
# [2] = test system: melanoma cells with oncogenic B-Raf (B-Raf melanoma); assay: Proliferation assay (Methylene Blue); type: cell-based; conditions: 72 h after peptide administration, 10 μM
# Protocol: (§1) FIGS. 3A-3B illustrate that EPE peptide prevents proliferation of cancer but not normal cells. (A) Effect of the EPE peptide on the proliferation of various cell lines. Sixteen cancer and four “normal” immortalized cell lines were treated with either EPE or scrambled peptides as described above. Viable cells were assayed by Methylene Blue at 48 or 72 hours after cell seeding. The data from at least three independent experiments is presented as percent of the amount of viable cells/initial cell number, where initial cell number was considered as 100. (B) Comparison of the effects of the EPE-peptide and Raf inhibitor PLX4032 on cell viability. NHEM-Ad, LOXIMVI, A2352, Hela MDA-MB-231, and DU-145 cells were treated with EPE peptide, scrambled peptide, (10 μM), PLX4032 (1 μM), DMSO control, or no treatment at 1% FCS. The number of cells was detected as above. The graphs present the kinetic of cell growth at the indicated times. All experiments were repeated 3 times in triplicates.
# (§2) All cells, except of MCF-10A, were seeded into 12-well cell plates in 1% FBS medium. MCF-10A cells were seeded in their complete medium diluted 5 fold. DMSO, Scr peptide, EPE peptide, or U0126 (final concentration of 10 μM each) were added to the appropriated wells four hours later. Every day medium was changed to fresh one containing the same agents. The number of viable cells was measured by Methylene Blue assay at 72 h after cell seeding. Shortly, cells were fixed with 4% Formaldehyde for 2 h at 23° C., washed once with 0.1M Borate Buffer pH 8.5 and stained with of 1% Methylene Blue in 0.1M Borate Buffer for 10 min. Color was extracted by adding 0.1 M HCl for 3 h at 23° C., and examined at 595 nm. For time course experiments, viable cells were measured at 0, 24, 48, 72 and 96 h after cell seeding. For dose response experiments we treaded the cells with 0.1, 1, 3, 10, or 30 μM of peptides for 72 h, as described above.
# [3] = test system: other melanomas, prostate and lung cancer-derived cells; assay: Proliferation assay (Methylene Blue); type: cell-based; conditions: 72 h after peptide administration, 10 μM
# Protocol: as §1, §2
# [4] = test system: immortalized, non-transformed cells; assay: Proliferation assay (Methylene Blue); type: cell-based; conditions: 72 h after peptide administration, 10 μM
# Protocol: as §1, §2
# [5] = test system: breast, prostate and cervical cancer-derived cells; assay: Proliferation assay (Methylene Blue); type: cell-based; conditions: 72 h after peptide administration, 10 μM
# Protocol: as §1, §2
# [6] = test system: JNK2 and p38; assay: Nuclear translocation of other MAPKs (fluorescence microscopy); type: cell-based; conditions: HeLa cells; TPA or anisomycin
# Protocol: HeLa cells were serum-starved, pretreated with the EPE or Scr peptides, and then stimulated with either TPA (250 nM, 15 min), anisomycin (Anis, 10 μg/ml, 15 min) for the indicated times, or left untreated as control (NT). The cells were stained with αp38 or αgJNK Abs and DAPI. Scale bar—15 μm. (B) Extracts from cells treated as in A were analyzed by Western blotting with the indicated Abs.
# Cells were fixed in 3% paraformaldehyde in PBS (20 min, 23° C.), and then permeabilized and blocked with 0.2% Triton X-100 in PBS-BSA (2%) for 20 min at 23° C. The fixed cells were sequentially incubated with appropriated Abs, (diluted in 10 μg/ml BSA/PBS) for 1 h, followed by either Cy-2 or rhodamine-conjugated secondary Abs and DAPI (diluted in BSA/PBS, 1:200) for 1 h. To follow the subcellular localization of the biotin-conjugated peptides, cells were incubated with Avidin-FITC (diluted in BSA/PBS 1:400) and DAPI. Slides were analyzed and photographed by a fluorescent microscope (Nikon, Japan, 600× magnification).
sequence,measurement,setting,value
"GQLNHILGILGEPEQED (Synthetic peptide (EPE)) [EPE peptide, NTS-derived peptide with phosphomimetic EPE motif]",ERK localization in xenograft tumor sections,[1],localized almost exclusively in the cytoplasm
same,proliferation (cell number),[2],profound reduction in cell number
same,proliferation (cell number),[3],small decrease in cell growth
same,proliferation (cell number),[4],did not respond to the peptide at all
same,proliferation (cell number),[5],"prevented cell growth, but did not reduce the number of initial cells"
same,"translocation of other MAPKs (JNK2, p38)",[6],affected neither the translocation of other MAPKs; also recorded: does not affect the nuclear translocation of JNK2 and p38
